Measurements from US20050059610A1 (priority 2003, published 2005).
“Also recorded” adds a separate entry of the source.

Assays:
heatstroke = experiment: Experimental heatstroke in the rat, oral GLN; type: in vivo, Sprague-Dawley Rats
Method: Heatstroke was performed in anesthetized rats (ketamine/xylazine) by heating animals to 42 deg C. (rectal temperature) for 30 minutes. Survival was analyzed for five days post-heatstroke. In a separate set of animals, HSP 70 and Heat Shock Factor-1 activation (HSF-1) were analyzed at 1-hour and 24-hours post-heatstroke in heart and lung tissue via western blot (n=10/group). Statistical analysis was performed via Fischer's Exact Test for survival and ANOVA with Duncan grouping as post-hoc test for HSP-70 and HSF-1 expression.

serum HSP 70 = experiment: Serum HSP-70 levels in critically ill patients (surgical ICU), GLN vs control; type: in vivo, human; settings: for Baseline HSP-70 / LN(Baseline HSP-70): before treatment
HSP 72 = experiment: HSP expression in heart and lung tissue of unstressed rats (Western blot); type: in vivo, rat
Method: GLN enhances heat shock protein expression in the unstressed and stressed myocardium. […] The increase was also observed for HSP 27 (another of the protective heat shock proteins) wherein the induction occurred as early as 4-6 hours and persisted for up to 48-72 hours.
Tissues were then harvested four hours post-GLN administration, and HSP 72 expressions were analyzed by Western blot. The image shown is representative of those obtained in four different experiments. The graph represents a percent increase in HSP 72 over control. […] (*p<0.001, **p<0.01, ***p<0.05 compared to control by ANOVA.)

[1] = system: intestinal epithelial cells; experiment: Protection of cells against heat and oxidant stress; type: cell-based
From the text: This was proven when blockade of HSP 70 expression via quercetin (inhibits HSF-1 binding) and via direct antisense inhibition of the HSP-70 gene (FIG. 12).

[2] = in vivo; cited from earlier work
endotoxin-induced sepsis = experiment: Lethal endotoxemia: survival, HSP expression, cytokine release; type: in vivo, rat; settings: GLN concurrently with lethal doses of endotoxin
Method: Evaluation of pro-inflammatory cytokine release was also assessed following endotoxemia.

critically ill patients = experiment: Clinical outcomes in critically ill patients, glutamine vs control; type: in vivo, human
[3] = system: polymicrobial sepsis and peritonitis (CLP); experiment: CLP peritonitis/polymicrobial sepsis, GLN 30 minutes after induction, with or without quercetin; type: in vivo, rat
From the text: Cecal ligation and puncture (CLP) in the rat was chosen as the appropriate model.

cardiomyocytes = experiment: Ischemia/reperfusion injury of isolated cardiomyocytes; type: cell-based
Method: Spontaneously contracting cardiomyocytes were studied.
Cardiomyocytes were allowed to equilibrate at baseline normoxic conditions for 60 minutes.

[4] = system: myocardial ischemia/reperfusion injury
[5] = system: polymicrobial sepsis (CLP); experiment: Cecal ligation and puncture (CLP): lung and heart tissue metabolism by MRS, survival; type: in vivo, Sprague-Dawley rats
Method: Survival was monitored for five days. In a separate group of animals (n=4/group), lung and heart tissue was harvested 24 hours post-CLP and tissue metabolism was analyzed by ^1H-MRS and ^31P-MRS.

[6] = system: onset of ischemia (1 mm of ST depression); experiment: Exercise stress test in patients with chronic stable angina, crossover trial; type: in vivo, human; settings: oral GLN 80 mg/kg 40 minutes prior to exercise stress test; 17 patients; vs placebo
From the text: Patients were then crossed over following a one-week interval.

[7] = system: polymicrobial sepsis (2CLP); experiment: Cecal-ligation and double-puncture (2CLP) sepsis: survival, cytokines, lung HSP 72; type: in vivo, Sprague-Dawley rats
From the text: Further, increased Interleukin-18 (IL-18) levels appear to play a critical role in cytokine-induced organ failure and can be predictive of mortality in sepsis patients.
Increased Interleukin-18 (IL-18) levels appear to play a critical role in cytokine-induced organ failure and can be predictive of mortality in sepsis patients.

[8] = five days of oral GLN prior to heatstroke
[9] = non-pancreatic diagnoses, n = 7
[10] = GLN 30 minutes after induction of peritonitis and sepsis

Compound: NC(=O)CC[C@H](N)C(=O)O [GLN, Glutamine]
- HSF-1 activation (heatstroke; 1-hour and 24-hours post-heatstroke): No change
- HSP 70 expression in heart and lung tissue (heatstroke; 1 hour post-heatstroke, versus unheated animals and heated controls): significantly enhanced
- HSP 70 between GLN and control animals (heatstroke; 24 hours post-heatstroke): no significant difference
- mortality following heatstroke (heatstroke; GLN 0.65 g/kg gavage twice a day for five days, 42 deg C. for 30 minutes, control 62.5%): 12.5%
- HSP 70 expression in heart, lung, and colon tissue (heatstroke; [8]): enhanced
- mortality from lethal heatstroke (in words) (heatstroke; [8]): significantly reduced
- HSP-70 levels at 1-week, higher than control patients by (serum HSP 70; 95% CI −0.01 to 5.64, p=0.050): 2.82 units
- change in HSP-70 levels from baseline to 1-week, greater than control patients by (serum HSP 70; 95% CI −0.09 to 5.29, p=0.057): 2.60 units
- 1-week HSP-70 (serum HSP 70; all diagnoses, n = 15): 4.09 ± 4.70
- HSP-70 change from baseline (serum HSP 70; all diagnoses, n = 15): 3.48 ± 4.53
- LN(1-week HSP-70) (serum HSP 70; all diagnoses, n = 15): 0.56 ± 1.63
- LN(1-wk HSP/Baseline HSP) (serum HSP 70; all diagnoses, n = 15): 1.93 ± 1.23
- Baseline HSP-70 (serum HSP 70; all diagnoses, n = 15): 0.61 ± 1.05
- LN(Baseline HSP-70) (serum HSP 70; all diagnoses, n = 15): −1.37 ± 1.26
- enhancement of serum HSP levels versus iso-nitrogenous control solution (serum HSP 70; intravenous GLN, mixed critically ill patients, surgical ICU): four-fold enhancement
- 1-week HSP-70 (serum HSP 70; [9]): 3.43 ± 5.17
- HSP-70 change from baseline (serum HSP 70; [9]): 2.60 ± 4.77
- LN(1-week HSP-70) (serum HSP 70; [9]): 0.20 ± 1.70
- LN(1-wk HSP/Baseline HSP) (serum HSP 70; [9]): 1.63 ± 1.21
- Baseline HSP-70 (serum HSP 70; [9]): 0.83 ± 1.48
- LN(Baseline HSP-70) (serum HSP 70; [9]): −1.43 ± 1.58
- HSP 27 induction, earliest occurrence (HSP 72; unstressed rat heart): 4 to 6 h
- HSP 27 induction, persistence up to (HSP 72; unstressed rat heart): 48 to 72 h
- HSP 70 and HSP 25 in heart and lung tissue (HSP 72; unstressed rats): enhance
- HSP 72 expression in heart and lung tissue vs control (densitometry) (HSP 72; unstressed rats, GLN 0.15, 0.45, 0.75 g/kg over 12-15 minutes, tissue four hours post-GLN): significantly enhanced; also recorded: significantly increased
- protection of cells against heat and oxidant stress [1]: protection
- half-life [2]: 6 h
- HSP 70 and 23 following lethal endotoxemia (endotoxin-induced sepsis): enhanced
- mortality following lethal endotoxemia (endotoxin-induced sepsis): reduced mortality
- ICU days (critically ill patients; all diagnoses, n = 15): 15.73 ± 16.18 days
- Length of stay (critically ill patients; all diagnoses, n = 15): 29.73 ± 14.46 days
- Maximum Total Bilirubin (units??) (critically ill patients; all diagnoses, n = 15): 1.23 ± 0.67
- Maximum Total Creatinine (units??) (critically ill patients; all diagnoses, n = 15): 1.26 ± 0.89
- Number of bacterial infections (critically ill patients; all diagnoses, n = 15): 0.20 ± 0.41
- Number of infections (critically ill patients; all diagnoses, n = 15): 1.87 ± 2.59
- One or more bacterial infections (%) (critically ill patients; all diagnoses, n = 15): 20.0%
- One or more infections (%) (critically ill patients; all diagnoses, n = 15): 60.0%
- Ventilator days (critically ill patients; all diagnoses, n = 15): 12.07 ± 15.25 days
- ICU days (critically ill patients; [9]): 16.71 ± 7.65 days
- Length of stay (critically ill patients; [9]): 25.29 ± 6.18 days
- Maximum Total Bilirubin (units??) (critically ill patients; [9]): 1.70 ± 0.70
- Maximum Total Creatinine (units??) (critically ill patients; [9]): 1.80 ± 1.07
- Number of bacterial infections (critically ill patients; [9]): 0.0 ± 0.0
- Number of infections (critically ill patients; [9]): 1.43 ± 1.40
- One or more infections (%) (critically ill patients; [9]): 57.1%
- One ore more bacterial infection (%) (critically ill patients; [9]): 0%
- Ventilator days (critically ill patients; [9]): 12.86 ± 9.03 days
- serum HSP 70 expression ([3]; CLP model, rat): markedly enhanced; also recorded: approximate four-fold increase
- deficient lung HSP 70 expression [3, 10]: markedly enhanced
- lung HSF-1 activation [3, 10]: markedly enhanced
- NAD+/NADH levels in lung tissue ([3]; following sepsis and peritonitis): nearly doubling
- survival following peritonitis and polymicrobial sepsis ([3]; rat, in vivo): significantly improve survival; also recorded: doubling of survival
- HSP 72 content (western blot) vs cells not receiving GLN (cardiomyocytes; 10 mM GLN): significant increase
- return of contractile function following I/R injury (cardiomyocytes; 10 mM GLN): significantly enhanced
- cell death from ischemia/reperfusion (cardiomyocytes; 10 mM GLN one hour before and throughout ischemia and reperfusion, control 48%): 22%
- recovery of cardiac flow following reperfusion ([4]; 0.75 g/kg alanine-glutamine (0.52 g/kg glutamine) IP 18 hours prior, pre-load 8 and 12 mmHg): significantly improved
- percent recovery of coronary flow ([4]; 60 minutes following reperfusion, 0.52 g/kg GLN 18 hours prior): significantly enhanced
- post-I/R cardiac output ([4]; single dose 18 hours prior to 15 minutes of no flow ischemia): significant improvement
- fall in lung tissue Creatine/phosphocreatine ([5]; 24 hours post-CLP): significantly attenuated
- fall in lung tissue glucose ([5]; 24 hours post-CLP): significantly attenuated
- fall in lung tissue glutamine ([5]; 24 hours post-CLP): significantly attenuated
- lung lactate accumulation ([5]; 24 hours post-CLP, p<0.06): trend towards a decrease
- five day mortality rate post-CLP ([5]; GLN 0.75 g/Kg one hour post surgery): 78%
- NAD+ content in lung and heart tissue following CLP ([5]; GLN 0.75 g/Kg one hour post surgery, 24 hours post-CLP): significant improvement
- onset of ST depression [6]: significant delay
- expression of IL-18 ([7]; 12, 18, and 24 hours post-2CLP): significantly attenuated
- expression of IL-6 ([7]; 6 hours post-2CLP): attenuated
- expression of TNF-α ([7]; 6 hours post-2CLP): attenuated
- lung HSP 72 expression versus control ([7]; following 2CLP): enhanced
- 5-day mortality rate following 2CLP ([7]; single dose GLN 0.75 g/Kg one hour following surgery, control 78%): 42%
